Laboratory results taken from ChEMBL document CHEMBL1138436, “Biological activity and chemistry of taxoids from the Japanese yew, Taxus cuspidata” (J Nat Prod, 2004).
Converted amounts (≈) assume the structure as drawn.

Columns and labels:
KB = assay: Cytotoxicity against human KB cells; assay type: functional, cell-based
[1] = Reversal of multidrug resistance in human 2780AD cells assessed as increase in vincristine accumulation relative to verapamil; assay type: functional, A2780 ADR; set-up: concentration or dose not given beside the values

C/C=C(\C)C(=O)O[C@@H]1C2=C(C)[C@@H](O)C[C@@](C(C)(C)O)([C@@H](OC(C)=O)[C@@H]3[C@]4(OC(C)=O)CO[C@@H]4C[C@H](OC(C)=O)[C@@]3(C)[C@H]1OC(C)=O)C2(C)C [TAXUSPINE Q]
IC50 (KB): 0.08 mg/L (≈ 0.115 µM)

C=C1[C@@H](OC(=O)CCc2ccccc2)CC[C@@]2(C)[C@@H](OC(C)=O)[C@H](OC(C)=O)C3=C(C)C(=O)C[C@@H]([C@@H](OC(C)=O)[C@H]12)C3(C)C
Activity [1]: 227%

CC(=O)O[C@H]1C(=O)[C@@]2(C)[C@H]([C@H](OC(=O)c3ccccc3)[C@]3(O)C[C@H](OC(=O)[C@H](O)[C@@H](NC(=O)c4ccccc4)c4ccccc4)C(C)=C1C3(C)C)[C@]1(OC(C)=O)CO[C@@H]1C[C@@H]2O [PACLITAXEL]
IC50 (KB): 0.0015 mg/L (≈ 0.00176 µM)

C=C1[C@@H](OC(=O)/C=C/c2ccccc2)CC[C@@]2(C)[C@H]3OC(C)(C)O[C@@H]3C3=C(C)C(=O)C[C@@H]([C@@H](OC(=O)/C=C/c4ccccc4)[C@H]12)C3(C)C
Activity [1]: 28%

C=C1[C@@H](OC(=O)C[C@H](c2ccccc2)N(C)C)C[C@H](OC(C)=O)[C@]2(C)[C@@H]1C[C@@H]1C[C@H](OC(C)=O)C(C)=C([C@@H](OC(C)=O)[C@@H]2OC(C)=O)C1(C)C
Activity [1]: 114%

CC(=O)O[C@H]1C(=O)[C@]2(C)[C@H](O)C[C@H]3OC[C@@]3(OC(C)=O)[C@H]2[C@H](OC(=O)c2ccccc2)[C@]2(O)C[C@H](OC(=O)[C@H](O)[C@@H](NC(=O)c3ccccc3)c3ccccc3)C(C)=C1C2(C)C
IC50 (KB): 0.0015 mg/L (≈ 0.00176 µM)

CC(=O)O[C@@H]1[C@@H]2CC(=O)C(C)=C([C@@H](OC(C)=O)[C@H](OC(C)=O)[C@]3(C)CC[C@H](O)[C@]4(CO4)[C@@H]13)C2(C)C
Activity [1]: 28%

CC(=O)O[C@H]1C[C@H]2[C@@H](OC(C)=O)/C=C3\C[C@](C)(C(=O)[C@H](O)C(=C1C)C2(C)C)[C@@H](OC(C)=O)C[C@@H]3OC(=O)/C=C/c1ccccc1 [TAXUSPINE B]
Activity [1]: 96%

CC(=O)OC/C1=C\[C@H](OC(C)=O)[C@@H]2C[C@H](OC(C)=O)C(C)=C([C@@H](O)/C(OC(C)=O)=C(\C)[C@@H](OC(C)=O)C[C@@H]1OC(=O)/C=C/c1ccccc1)C2(C)C [TAXUSPINE X]
Activity [1]: 105%

C=C1[C@@H](OC(=O)/C=C/c2ccccc2)CC[C@@]2(C)[C@@H](OC(=O)/C=C/c3ccccc3)[C@H](OC(=O)/C=C/c3ccccc3)C3=C(C)C(=O)C[C@@H]([C@@H](OC(=O)/C=C/c4ccccc4)[C@H]12)C3(C)C
Activity [1]: 28%

CC(=O)O[C@@H]1[C@@H]2CC(=O)C(C)=C([C@@H](OC(C)=O)[C@H](OC(C)=O)[C@]3(C)CC[C@H](O)[C@@]4(CO4)[C@@H]13)C2(C)C
Activity [1]: 28%

C=C1[C@@H](OC(=O)c2ccccc2)CC[C@@]2(C)[C@@H](OC(C)=O)[C@H](OC(C)=O)C3=C(C)[C@@H](O)C[C@@H]([C@@H](OC(C)=O)[C@H]12)C3(C)C
Activity [1]: 88%

C=C1[C@@H](OC(=O)C[C@H](c2ccccc2)N(C)C)CC[C@@]2(C)[C@@H](OC(C)=O)[C@H](OC(C)=O)C3=C(C)C(=O)C[C@@H]([C@@H](OC(C)=O)[C@H]12)C3(C)C [TAXINE II]
Activity [1]: 95%

C=C1[C@@H](OC(=O)/C=C/c2ccccc2)CC[C@@]2(C)[C@@H](OC(=O)c3ccccc3)[C@H](OC(=O)c3ccccc3)C3=C(C)C(=O)C[C@@H]([C@@H](OC(C)=O)[C@H]12)C3(C)C
Activity [1]: 28%

C=C1[C@@H](OC(=O)/C=C/c2ccccc2)C[C@H](OC(C)=O)[C@]2(C)[C@@H]1C[C@@H]1C[C@H](OC(C)=O)C(C)=C([C@@H](OC(C)=O)[C@@H]2OC(C)=O)C1(C)C
Activity [1]: 108%

CCCCCC(=O)N[C@@H](c1ccccc1)[C@@H](O)C(=O)O[C@H]1C[C@@]2(O)[C@@H](OC(=O)c3ccccc3)[C@@H]3[C@]4(OC(C)=O)CO[C@@H]4C[C@H](O)[C@@]3(C)C(=O)[C@H](O)C(=C1C)C2(C)C [10-DEACETYLTAXAYUNNANINE A]
IC50 (KB): 0.0015 mg/L (≈ 0.00186 µM)

C=C1[C@@H](OC(=O)c2ccccc2)CC[C@@]2(C)[C@@H](OC(C)=O)[C@H](OC(C)=O)C3=C(C)C(=O)C[C@@H]([C@@H](OC(C)=O)[C@H]12)C3(C)C
Activity [1]: 87%

CC[Si](CC)(CC)O[C@H]1CC[C@@]2(C)[C@@H](OC(C)=O)[C@H](OC(C)=O)C3=C(C)C(=O)C[C@@H]([C@@H](OC(C)=O)[C@@H]2[C@@]12CO2)C3(C)C
Activity [1]: 101%

C=C1[C@@H](OC(=O)C[C@H](c2ccccc2)N(C)C)CC[C@]2(C)[C@@H]1C[C@@H]1C[C@H](OC(C)=O)C(C)=C([C@@H](OC(C)=O)[C@@H]2OC(C)=O)C1(C)C
Activity [1]: 119%

CC[Si](CC)(CC)O[C@H]1CC[C@@]2(C)[C@@H](OC(C)=O)[C@H](OC(C)=O)C3=C(C)C(=O)C[C@@H]([C@@H](OC(C)=O)[C@@H]2[C@]12CO2)C3(C)C
Activity [1]: 102%

C/C=C(\C)C(=O)N[C@@H](c1ccccc1)[C@@H](O)C(=O)O[C@H]1C[C@@]2(O)[C@@H](OC(=O)c3ccccc3)[C@@H]3[C@]4(OC(C)=O)CO[C@@H]4C[C@H](O)[C@@]3(C)C(=O)[C@H](O)C(=C1C)C2(C)C
IC50 (KB): 0.0015 mg/L (≈ 0.0019 µM)

C=C1[C@@H](OC(=O)/C=C/c2ccccc2)CC[C@@]2(C)[C@@H](OC(C)=O)[C@H](OC(C)=O)C3=C(C)[C@@H](OC(=O)/C=C/c4ccccc4)C[C@@H]([C@@H](OC(C)=O)[C@H]12)C3(C)C
Activity [1]: 28%

C=C1[C@H]2C[C@]3(C(C)(C)O)C[C@H](O)C(C)=C3[C@@H](OC(=O)c3ccccc3)[C@H](OC(C)=O)[C@]2(C)[C@@H](OC(C)=O)C[C@@H]1O [BREVIFOLIOL]
IC50 (KB): 0.08 mg/L (≈ 0.144 µM)

CC(=O)O[C@H]1C[C@H]2[C@@H](OC(C)=O)/C=C3\C[C@](C)(C(=O)[C@H](O)C(=C1C)C2(C)C)[C@@H](OC(C)=O)C[C@@H]3O [TAXUSPINE W]
IC50 (KB): 0.08 mg/L (≈ 0.162 µM)

C=C1[C@@H](O)CC[C@@]2(C)[C@@H](OC(C)=O)[C@H](OC(C)=O)C3=C(C)C(=O)C[C@@H]([C@@H](OC(=O)/C=C/c4ccccc4)[C@H]12)C3(C)C
Activity [1]: 98%

C=C1[C@@H](O)CC[C@@]2(C)[C@@H](OC(C)=O)[C@H](OC(C)=O)C3=C(C)C(=O)C[C@@](O)([C@@H](OC(C)=O)[C@H]12)C3(C)C
IC50 (KB): 0.08 mg/L (≈ 0.162 µM)

C=C1[C@@H](OC(=O)/C=C/c2ccccc2)C[C@H](OC(C)=O)[C@]2(C)[C@@H]1C[C@@H]1C[C@H](O)C(C)=C([C@@H](OC(C)=O)[C@@H]2OC(C)=O)C1(C)C [TAXEZOPIDINE H]
Activity [1]: 106%

CCCC(=O)N[C@@H](c1ccccc1)[C@@H](O)C(=O)O[C@H]1C[C@@]2(O)[C@@H](OC(=O)c3ccccc3)[C@@H]3[C@]4(OC(C)=O)CO[C@@H]4C[C@H](O)[C@@]3(C)C(=O)[C@H](OC(C)=O)C(=C1C)C2(C)C [TAXCULTIN]
IC50 (KB): 0.0015 mg/L (≈ 0.00183 µM)

C=C1[C@@H](O)CC[C@@]2(C)[C@@H](OC(C)=O)[C@H](OC(C)=O)C3=C(C)[C@@H](OC(=O)c4ccccc4)C[C@@H]([C@@H](OC(C)=O)[C@H]12)C3(C)C
Activity [1]: 87%

C=C1[C@@H](OC(=O)C[C@H](c2ccccc2)N(C)C)CC[C@@]2(C)[C@@H](OC(C)=O)[C@H](OC(C)=O)C3=C(C)[C@@H](OC(C)=O)C[C@@H]([C@@H](O)[C@H]12)C3(C)C [TAXUSPINE Z]
Activity [1]: 106%

C=C1[C@@H](OCOCc2ccccc2)CC[C@@]2(C)[C@@H](OC(C)=O)[C@H](OC(C)=O)C3=C(C)C(=O)C[C@@H]([C@@H](OC(C)=O)[C@H]12)C3(C)C
Activity [1]: 150%

C=C1[C@@H](OC(=O)/C=C/c2ccccc2)CC[C@@]2(C)[C@@H](OC(=O)/C=C/c3ccccc3)[C@H](OC(=O)/C=C/c3ccccc3)C3=C(C)C(=O)C[C@@H]([C@@H](OC(C)=O)[C@H]12)C3(C)C
Activity [1]: 28%

C=C1[C@@H](OC(=O)/C=C/c2ccccc2)CC[C@@]2(C)[C@@H](OC(C)=O)[C@H](OC(C)=O)[C@@]34[C@H](C)C(=O)C[C@@H]([C@@H](OC(C)=O)[C@@]132)C4(C)C [TAXUSPINE C]
Activity [1]: 104%

C=C1[C@@H](O[Si](CC)(CC)CC)CC[C@@]2(C)[C@@H](OC(C)=O)[C@H](OC(C)=O)C3=C(C)C(=O)C[C@@H]([C@@H](OC(C)=O)[C@H]12)C3(C)C
Activity [1]: 91%

C=C1[C@@H](OC(=O)/C=C/c2ccccc2)C[C@H](OC(C)=O)[C@@]2(CO)[C@@H](OC(C)=O)[C@H](OC(C)=O)[C@]3(O)[C@@]4(C)CO[C@]3(C)C(=O)C[C@H]4[C@@H](OC(C)=O)[C@H]12 [TAXUSPINE S]
IC50 (KB): 0.08 mg/L (≈ 0.112 µM)

C=C1[C@@H](OC(=O)/C=C/c2ccccc2)C[C@H](OC(C)=O)[C@]2(C)[C@@H]1C[C@]1(C(C)(C)O)C[C@H](OC(C)=O)C(C)=C1[C@@H](OC(C)=O)[C@@H]2OC(C)=O [TAXUSPINE J]
Activity [1]: 114%

C=C1[C@@H](OC(=O)c2ccccc2)CC[C@@]2(C)[C@@H](OC(C)=O)[C@H](OC(C)=O)[C@@]34[C@H](C)C(=O)C[C@@H]([C@@H](OC(C)=O)[C@@]132)C4(C)C
Activity [1]: 125%

CC(=O)O[C@@H]1[C@@H]2CC(=O)C(C)=C([C@@H](OC(C)=O)[C@H](OC(C)=O)[C@]3(C)CC[C@H](OC(=O)/C=C/c4ccccc4)[C@@]4(CO4)[C@@H]13)C2(C)C
Activity [1]: 139%

C=C1[C@@H](OC(=O)/C=C/c2ccccc2)CC[C@@]2(C)[C@H]3OC(C)(C)O[C@@H]3C3=C(C)C(=O)C[C@@H]([C@@H](OC(=O)c4ccccc4)[C@H]12)C3(C)C
Activity [1]: 28%

C=C1[C@@H](O)CC[C@@]2(C)[C@@H](OC(C)=O)[C@H](OC(C)=O)C3=C(C)[C@@H](O)C[C@@H]([C@@H](OC(C)=O)[C@H]12)C3(C)C
Activity [1]: 28%

C=C1[C@@H](O)CC[C@@]2(C)[C@@H](OC(C)=O)[C@H](OC(C)=O)C3=C(C)[C@@H](OC(=O)/C=C/c4ccccc4)C[C@@H]([C@@H](OC(C)=O)[C@H]12)C3(C)C
Activity [1]: 95%

C=C1[C@@H](O)CC[C@@]2(C)[C@@H](OC(C)=O)[C@H](OC(C)=O)C3=C(C)[C@H](O)C[C@@H]([C@@H](OC(C)=O)[C@H]12)C3(C)C
Activity [1]: 28%

C=C1[C@@H](OC(=O)c2ccccc2)CC[C@@]2(C)[C@@H](OC(=O)c3ccccc3)[C@H](OC(=O)c3ccccc3)C3=C(C)C(=O)C[C@@H]([C@@H](OC(C)=O)[C@H]12)C3(C)C
Activity [1]: 28%
